Reference: patent publication US11512262B2, “Azaphenothiazines and azaphenoxazines as antioxidants” (University of Ottawa, priority 2017, dated 2022)

Test: hexadecane/PBD-BODIPY co-autoxidation, inhibition by antioxidant
Conditions: hexadecane/PBD-BODIPY co-autoxidations at 70° C. in PhCl
Experimental: FIG. 1 is a graph depicting co-autoxidation of 2.8M hexadecane and 10 μM PBD-BODIPY at 70° C. in PhCl, initiated by 87 mM tBu2O2, and inhibited by 0.6 μM 1, 2, or 9.
Table 1. […] Relative to other antioxidants, autoxidation was inhibited poorly in the catalytic phase. Dye consumption prevented accurate determination of the stoichiometry.

| Compound | Inhibition rate constant kinh | Stoichiometry n | Turnover in the catalytic phase (footnote a to n) |
| --- | --- | --- | --- |
| c1ccc2c(c1)Nc1ncccc1O2 [Compound 1, 1-Azaphenoxazine] | (6.8 ± 0.2) × 10^5 M^−1s^−1 | 50 ± 1 | – |
| CCN(CC)c1ncc2c(n1)Nc1ccccc1S2 [Compound 10, 2-Diethylamino-1,3-Diazaphenothiazine] | (2.4 ± 0.4) × 10^6 M^−1s^−1 | 11 ± 0.7 | – |
| c1ccc2c(c1)Nc1ccncc1S2 [Compound 4, 3-Azaphenothiazine] | (5.9 ± 0.5) × 10^5 M^−1s^−1 | 46 ± 3 | – |
| CCCCCCCc1nc(C)c2c(n1)Nc1ccccc1O2 [Compound 5, 2-Heptyl-4-methyl-1,3-Diazaphenoxazine] | (9.0 ± 0.3) × 10^5 M^−1s^−1 | 109 ± 4 | – |
| CCCCCCCc1nc(C)c2c(n1)Nc1ccccc1S2 [Compound 6, 2-Heptyl-4-methyl-1,3-Diazaphenothiazine] | (3.3 ± 0.2) × 10^5 M^−1s^−1 | – | Inefficient turnover |
| CCN(CC)c1ncc2c(n1)Nc1ccccc1S2 [Compound 7, 2-Diethylamino-1,3-Diazaphenothiazine] | (2.0 ± 0.1) × 10^5 M^−1s^−1 | 4 ± 0.4 | – |
| COc1ccc2c(n1)Sc1cccnc1N2 [Compound 9, 3-Methoxy-4,9-Diazaphenothiazine] | (5.6 ± 0.3) × 10^5 M^−1s^−1 | 15 ± 2 | – |
| c1ccc2c(c1)Nc1ccncc1O2 [Compound 3, 3-Azaphenoxazine] | (1.3 ± 0.2) × 10^5 M^−1s^−1 | 183 ± 8 | – |
| c1ccc2c(c1)Nc1ncccc1S2 [Compound 2, 1-Azaphenothiazine] | (2.8 ± 0.1) × 10^5 M^−1s^−1 | 10 ± 2 | – |
| c1ccc2c(c1)Nc1nc(N3CCCC3)ncc1S2 [Compound 8, 2-(Pyrrolidn-1-yl)-1,3-Diazaphenothiazine] | (2.6 ± 0.1) × 10^5 M^−1s^−1 | 6 ± 0.1 | – |
